In US11844802B2, “Compounds and compositions for ossification and methods related thereto” (Emory University, priority 2010, dated 2023):

Experiments:
[1] = system: alkaline phosphatase activity; experiment: BMP-2 induced alkaline phosphatase (ALP) enzyme activity assay in C2C12 cells; assay type: cell-based, Mouse
Description: (§1) Mouse C2C12 cells and Dulbecco's modified Eagle's medium (DMEM) were purchased from ATCC (Manassas, VA). The non-heat inactivated fetal bovine serum (FBS) was purchased from HyClone Laboratories, Inc. (Logan, UT). The C2C12 cells at passages 5 to 10 were subcultured in T-75 cm^2 flasks in DMEM supplemented with 10% FBS at 37° C. in 5% CO2 with humidification. When the flasks reached 80% confluence, the cells were trypsinized and seeded in triplicate at 200,000 cells/well in a 6-well plate for quantitative real-time RT-PCR and alkaline phosphatase (ALP) assays or at 50,000 cells/well in a 12-well plate for the dual-luciferase reporter assay.
The C2C12 cells were plated at 200,000 cells/well in 6-well plates and grown overnight in DMEM containing 10% FBS. On day 2, the culture medium was replaced with DMEM containing 2% FBS and the cells were treated with various concentrations of the Smurf1-interacting compound for 24 hours. On day 3, the medium was replaced with fresh DMEM containing 2% FBS and the cells were treated with 50 ng/ml of BMP-2 with or without compound for 72 hours. The cells were washed with phosphate-buffered saline (PBS) and lysed by addition of lysis buffer (10 mM Tris-HCl pH 8.0, 1 mM MgCl2 and 0.5% Triton X-100). The cell lysates were centrifuged for 5 minutes at 13,000×g. The supernatant was removed and the aliquots were assayed for ALP activity and protein amount. The ALP activity was measured in triplicate using an ALP assay kit (Sigma-Aldrich, St. Louis, MO) in microtiter plates. The protein amount was determined with Bio-Rad™ protein assay reagent (Bio-Rad, Hercules, CA) using bovine serum albumin (BSA) as a standard. The ALP activity (nmoles of p-nitrophenol per ml) was normalized to the protein amount (nmoles of p-nitrophenol per μg).
(§2) The EC50 values were calculated by determining the concentration by which 50% of maximum activity was reached using the sigmoidal fit equation. The 50% effective concentrations were determined with the standard curve analysis of SigmaPlot™ 8.02. […]

[2] = system: C2C12 myoblasts; experiment: BMP-2 responsiveness / osteoblastic transdifferentiation of C2C12 myoblasts, multiple assays; assay type: cell-based, Mouse
Excerpt: Derivatives with desired attributes can be evaluated using the procedure described below.
Compounds were selected by virtual screening for development based on computational modeling, docking, and in silico screening. […] (See Sangadala et al. (2007) Proteins 68: 690-701 and FIG. 2). The BMP-potentiating activities of compounds may be evaluated by monitoring several markers of the osteoblastic phenotype corresponding to various time points during phenotype differentiation of C2C12 cells towards terminally differentiated osteoblasts.

[3] = system: osteocalcin mRNA; experiment: BMP-2 induced osteocalcin mRNA level, quantitative real-time RT-PCR in C2C12 cells; assay type: cell-based, Mouse; conditions: for increase in osteocalcin mRNA by BMP-2 alone: compared to no treatment control
Description: as §1
(§3) The C2C12 cells were plated at a density of 200,000 cells/well in 6-well plates and grown overnight in DMEM containing 10% FBS. On day 2, the culture medium was replaced with DMEM containing 2% FBS and the cells were treated with various concentrations of Smurf1-interacting compound (diluted from 10 mg/ml stock solutions prepared in DMSO) for 24 hours. In control cultures, a DMSO solvent concentration of 0.01% (v/v) was applied. On day 3, medium was replaced with fresh DMEM containing 2% FBS and the cells were treated with BMP-2 for 24 hours.
(§4) Total RNA was harvested using the RNeasy Mini Kit according to the manufacturer's instructions (Qiagen, Valencia, CA). The harvested RNA was digested with RNase-free DNase I (Qiagen, Valencia, CA) to remove DNA contamination. The concentration of the isolated RNA was determined by measuring the absorbance at 260 nm wave length with a spectrophotometer (Model DU 640, Beckman Coulter, Inc. Brea, CA). The ratio of A260/A280 was between 1.6 and 1.8. Reverse transcription was carried out to synthesize cDNA in a 100 μl volume with 2 μg of total RNA, 10×RT buffer, 5.5 mM MgCl2, 2 mM dNTP mixture, 0.125 μM oligo d(T), 0.125 μM random primer, 40 Units of RNase inhibitor, and 125 Units of MultiScribe™ (Applied Biosystems, Foster City, CA) for 10 minutes at 25° C., 30 minutes at 48° C., and 5 minutes at 95° C.
Quantitative real-time RT-PCR was performed to determine the mRNA expression level of ALP and osteocalcin. The sequences of the primers were as follows: ALP (forward, 5′-TCAGGGCAATGAGGTCACATC-3′; (SEQ ID NO: 6), reverse, 5′-CAC AAT GCC CAC GGA CTT C-3′) (SEQ ID NO: 7), osteocalcin (forward, 5′-CGGCCCTGAGTCTGACAAAG-3′; (SEQ ID NO: 8) reverse, 5′-CTCGTCACAAGCAGGGTCAA-3′ (SEQ ID NO: 9)). Twenty-five microliters of reaction volume included 5 μl of cDNA, 0.5 μl of 10 μM of each primer and 12.5 μl of 2×SYBR green master mix (Applied Biosystems). Real-time PCR was performed with the following three-step protocol: step 1, 50° C. for 2 minutes; step 2, 95° C. for 10 minutes; step 3, 40 cycles of 95° C. for 15 seconds and 62° C. for 1 minute using the 7500 real-time PCR System (Applied Biosystems, Foster City, CA). To confirm the amplification specificity, the PCR products were subjected to a dissociation curve analysis. The threshold cycles (Ct) of each reaction were normalized to those obtained for 18S mRNA using the −ΔΔCt method (Applied Biosystems). All PCR reactions were performed in triplicate.
as §2

[4] = system: rat model; experiment: in vivo bone-formation in rat model (ectopic bone induction); conditions: without any BMP-2
[5] = system: C2C12 cells; experiment: cell lifting / cell number observation in C2C12 reporter assay; assay type: cell-based, Mouse; conditions: reduced number of cells at end of experiment
Description: Compounds were tested experimentally for their ability to potentiate BMP-2 activity in our luciferase reporter assay using C2C12 cells (FIGS. 5A and 5B).

[6] = system: BMP-specific Smad1-driven 9×GCCG reporter; experiment: BMP-2 induced Smad1-driven dual-luciferase reporter assay in C2C12 cells; assay type: cell-based, Mouse; conditions: BMP-2 1 ng/ml
Description: A cell-based method was optimized to monitor BMP-2 induced responses. […] One can monitor transcriptional activity driven by activated Smad1 in C2C12 cells in a cell-based assay utilizing a Smad1-specific luciferase reporter plasmid containing a multimerized -GCCG- motif (9 copies). […] A concentration range of BMP-2 required for activating the reporter assay was established.
A BMP-specific Smad1-driven 9×GCCG (a consensus binding sequence for Smad1) reporter plasmid was used. The C2C12 cells were trypsinized and seeded in triplicate wells at 50,000 cells/well in 12-well plates on day 1. On day 2, the cells were cotransfected with the 9×GCCG-reporter construct and the renilla-luciferase control vector using SuperFect (Qiagen, Valencia, CA) for 24 hrs. […] On day 5, the luciferase activities were measured in 20 μl of cell-lysate using the dual-luciferase assay system (Promega, Madison, WI) with a luminometer (LumiCount™; Packard Bioscience, Meriden, CT) following the manufacturer's instructions. The luciferase activity was expressed as relative units of luciferase (RUL; a ratio of firefly luciferase to renilla luciferase activity). […]

[7] = system: alkaline phosphatase mRNA; experiment: BMP-2 induced alkaline phosphatase mRNA level, quantitative real-time RT-PCR in C2C12 cells; assay type: cell-based, Mouse; conditions: for increase in alkaline phosphatase mRNA by BMP-2 alone: compared to no treatment control
Description: as §1, §3, §4
Quantitative real-time RT-PCR was performed to determine the mRNA expression level of ALP and osteocalcin. The sequences of the primers were as follows: ALP (forward, 5′-TCAGGGCAATGAGGTCACATC-3′; (SEQ ID NO: 6), reverse, 5′-CAC AAT GCC CAC GGA CTT C-3′) (SEQ ID NO: 7), osteocalcin (forward, 5′-CGGCCCTGAGTCTGACAAAG-3′; (SEQ ID NO: 8) reverse, 5′-CTCGTCACAAGCAGGGTCAA-3′ (SEQ ID NO: 9)). Twenty-five microliters of reaction volume included 5 μl of cDNA, 0.5 μl of 10 μM of each primer and 12.5 μl of 2×SYBR green master mix (Applied Biosystems). […]

Molecule | efficacy relative to other derivatives in cell-based alkaline phosphatase assay ([1]; screening, FIG. 9) | potentiation of BMP-2 induced transdifferentiation of C2C12 myoblasts into the osteoblastic phenotype [2] | EC50 ([3]; Mus musculus, C2C12, BMP-2 20 ng/ml, estimated, read-out: EC50, expression of osteocalcin mRNA) | effect of compound alone on osteocalcin mRNA ([3]; absence of BMP-2) | maximal increase in BMP-induced osteocalcin mRNA level ([3]; compound 1.0 μg/ml, BMP-2 20 ng/ml, compared to BMP-2 alone, P<0.05) | bone-formation in rat model [4] | concentration causing lifting of some cells from the plates [5] | EC50 ([1]; Mus musculus, C2C12, BMP-2 50 ng/ml, estimated) | maximal increase in BMP-2 induced ALP activity ([1]; compound 1.0 μg/ml, BMP-2 50 ng/ml, compared to BMP-2 alone, P<0.001) | effective dose of compound among multiple assays ([2]; C2C12 cells, BMP-2 induced markers) | effect on BMP-2-induced response ([2]; dose of 0.1 μg/ml) | EC50 ([6]; Mus musculus, C2C12, calculated from the Hill plot, read-out: EC50, potentiation of BMP-2 luciferase reporter activity) | optimum enhancement of BMP-2 induced luciferase activity ([6]; compound 1.0 μg/ml, compared to BMP-2 alone, P<0.05) | maximal increase in BMP-induced alkaline phosphatase mRNA level ([7]; BMP-2 20 ng/ml, compared to BMP-2 alone, P<0.05) | EC50 ([7]; Mus musculus, C2C12, BMP-2 20 ng/ml, estimated, read-out: EC50, expression of alkaline phosphatase mRNA) | increase in osteocalcin mRNA by BMP-2 alone ([3]; absence of DMSO) | increase in osteocalcin mRNA by BMP-2 alone ([3]; presence of DMSO (0.01%)) | increase in alkaline phosphatase mRNA by BMP-2 alone ([7]; absence of DMSO) | increase in alkaline phosphatase mRNA by BMP-2 alone ([7]; presence of DMSO (0.01%))
CC1(C)N=C(N)N=C(N)N1c1ccc(Cl)cc1 [Compound 12X, 1-(4-chlorophenyl)-4,6-diamino-1,2-dihydro-2,2-dimethyl-1,3,5-triazine] | more efficacious | potentiate the effects of BMP-2 |  |  |  |  |  |  |  |  |  |  |  |  |  |  |  |  | 
C=Cc1nc(N)nc(N)n1 [Compound 12, 2,4-diamino-6-vinyl-1,3,5-triazine] |  | potentiate the effects of BMP-2 | 1.5 to 5.3 µM | no significant effect | 4.4 fold | capable of inducing bone-formation | higher than 1.5 ug/ml | 3.7 µM | 4.8 fold | 0.275 to 1.0 µg/mL | elevated the BMP-2-induced response significantly | 2.6 µM | 3.8 fold | 3.5 fold | 1.5 to 5.3 µM |  |  |  | 
BMP-2: bone morphogenetic protein, growth factor known to induce bone and cartilage formation and play a role in osteoblast differentiation (protein, listed as Homo sapiens) MVAGTRCLLALLLPQVLLGGAAGLVPELGRRKFAAASSGRPSSQPSDEVLSEFELRLLSMFGLKQRPTPSRDAVVPPYMLDLYRRHSGQPGSPAPDHRLERAASRANTVRSFHHEESLEELPETSGKTTRRFFFNLSSIPTEEFITSAELQVFREQMQDALGNNSSFHHRINIYEIIKPATANSKFPVTRLLDTRLVNQNASRWESFDVTPAVMRWTAQGHANHGFVVEVAHLEEKQGVSKRHVRISRSLHQDEHSWSQIRPLLVTFGHDGKGHPLHKREKRQAKHKQRKRLKSSCKRHPLYVDFSDVGWNDWIVAPPGYHAFYCHGECPFPLADHLNSTNHAIVQTLVNSVNSKIPKACCVPTELSAISMLYLDENEKVVLKNYQDMVVEGCGCR |  |  |  |  |  |  |  |  |  |  |  |  |  |  |  | 9 fold | 7 fold | 43 fold | 51 fold
